This assay deals with HaCaT keratinocytes. As to the kind of experiment: Influence on keratinocyte proliferation (HaCaT, Cell Titer Viability Assay). The class given is cell-based. As to conditions: Homo sapiens, 25 μM test compound, KBM/FCS, 1% DMSO, 48 hrs incubation, read-out: inhibition of keratinocyte proliferation compared to control experiments. As to the method: Influence of Compounds According to the Invention on Keratinocyte Proliferation
5×10^3 HaCaT keratinocytes were seeded into 60 wells of 96 well plates in 200 μl KBM/10% FCS and incubated for 24 hrs at 37° C. The test compounds were dissolved at 100 mM in DMSO. The test items were then diluted to a concentration of 25 μM in KBM/FCS with a final concentration of 1% DMSO. The test compounds, as well as the negative control for unstimulated cells (KBM/1% DMSO) and stimulated cells (KBM/FCS/1% DMSO), were added to the HaCaTs in triplicates and incubated for 48 hrs. At the end of the incubation period, the media was removed and cell numbers were determined with Cell Titer Viability Assay from Promega (#G7571/G7572) according to the manufacturer's instructions.

Here are results for one molecule from patent US7276606B2, “Phenantridine analogues and uses thereof” (4SC AG, priority 2004, dated 2007).

Some results are limits rather than exact numbers.

On to `COc1cccc(C(=O)N2c3ccccc3-c3ccccc3C2c2c[nH]c3ccccc23)c1` (stereo not shown) [Example 11, [6-(1H-Indol-3-yl)-6H-phenanthridin-5-yl]-(3-methoxy-phenyl)-methanone], for which the inhibition at 25 µM is greater than 50%.
